Source: patent publication US9902696B2, “1,4-substituted piperidine derivatives” (Cephalon, Inc., priority 2015, dated 2018)
Where a name gives a salt, the structure may show the parent alone.

Biological target: T1, recombinant human baculovirus-expressed GST-tagged FASN (Homo sapiens, UniProt P49327)
T1 construct: GST
Test: FASN enzyme activity assay, fluorescence-based detection of CoA with CPM
Type: biochemical
Settings: 5 nM FASN, 150 μM NADPH, 10 μM acetyl-CoA, 25 μM malonyl-CoA, 90 minutes incubation; read-out: IC50 data for Compounds of Formulae I-V/V(a): Activity
How it was run: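 CoA product reacted with thiol-reactive CPM (diluted to 50 μM in 70% ethanol), read at 390/530 nm after 30 min. Preceding reaction: 90 min, 5 nM recombinant GST-FASN, 150 μM NADPH, 10 μM acetyl-CoA, 25 μM malonyl-CoA, pH 7.5 HEPES, 0.5% DMSO. IC50s fitted by nonlinear sigmoidal regression.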

T1 sequence (P49327 whole entry): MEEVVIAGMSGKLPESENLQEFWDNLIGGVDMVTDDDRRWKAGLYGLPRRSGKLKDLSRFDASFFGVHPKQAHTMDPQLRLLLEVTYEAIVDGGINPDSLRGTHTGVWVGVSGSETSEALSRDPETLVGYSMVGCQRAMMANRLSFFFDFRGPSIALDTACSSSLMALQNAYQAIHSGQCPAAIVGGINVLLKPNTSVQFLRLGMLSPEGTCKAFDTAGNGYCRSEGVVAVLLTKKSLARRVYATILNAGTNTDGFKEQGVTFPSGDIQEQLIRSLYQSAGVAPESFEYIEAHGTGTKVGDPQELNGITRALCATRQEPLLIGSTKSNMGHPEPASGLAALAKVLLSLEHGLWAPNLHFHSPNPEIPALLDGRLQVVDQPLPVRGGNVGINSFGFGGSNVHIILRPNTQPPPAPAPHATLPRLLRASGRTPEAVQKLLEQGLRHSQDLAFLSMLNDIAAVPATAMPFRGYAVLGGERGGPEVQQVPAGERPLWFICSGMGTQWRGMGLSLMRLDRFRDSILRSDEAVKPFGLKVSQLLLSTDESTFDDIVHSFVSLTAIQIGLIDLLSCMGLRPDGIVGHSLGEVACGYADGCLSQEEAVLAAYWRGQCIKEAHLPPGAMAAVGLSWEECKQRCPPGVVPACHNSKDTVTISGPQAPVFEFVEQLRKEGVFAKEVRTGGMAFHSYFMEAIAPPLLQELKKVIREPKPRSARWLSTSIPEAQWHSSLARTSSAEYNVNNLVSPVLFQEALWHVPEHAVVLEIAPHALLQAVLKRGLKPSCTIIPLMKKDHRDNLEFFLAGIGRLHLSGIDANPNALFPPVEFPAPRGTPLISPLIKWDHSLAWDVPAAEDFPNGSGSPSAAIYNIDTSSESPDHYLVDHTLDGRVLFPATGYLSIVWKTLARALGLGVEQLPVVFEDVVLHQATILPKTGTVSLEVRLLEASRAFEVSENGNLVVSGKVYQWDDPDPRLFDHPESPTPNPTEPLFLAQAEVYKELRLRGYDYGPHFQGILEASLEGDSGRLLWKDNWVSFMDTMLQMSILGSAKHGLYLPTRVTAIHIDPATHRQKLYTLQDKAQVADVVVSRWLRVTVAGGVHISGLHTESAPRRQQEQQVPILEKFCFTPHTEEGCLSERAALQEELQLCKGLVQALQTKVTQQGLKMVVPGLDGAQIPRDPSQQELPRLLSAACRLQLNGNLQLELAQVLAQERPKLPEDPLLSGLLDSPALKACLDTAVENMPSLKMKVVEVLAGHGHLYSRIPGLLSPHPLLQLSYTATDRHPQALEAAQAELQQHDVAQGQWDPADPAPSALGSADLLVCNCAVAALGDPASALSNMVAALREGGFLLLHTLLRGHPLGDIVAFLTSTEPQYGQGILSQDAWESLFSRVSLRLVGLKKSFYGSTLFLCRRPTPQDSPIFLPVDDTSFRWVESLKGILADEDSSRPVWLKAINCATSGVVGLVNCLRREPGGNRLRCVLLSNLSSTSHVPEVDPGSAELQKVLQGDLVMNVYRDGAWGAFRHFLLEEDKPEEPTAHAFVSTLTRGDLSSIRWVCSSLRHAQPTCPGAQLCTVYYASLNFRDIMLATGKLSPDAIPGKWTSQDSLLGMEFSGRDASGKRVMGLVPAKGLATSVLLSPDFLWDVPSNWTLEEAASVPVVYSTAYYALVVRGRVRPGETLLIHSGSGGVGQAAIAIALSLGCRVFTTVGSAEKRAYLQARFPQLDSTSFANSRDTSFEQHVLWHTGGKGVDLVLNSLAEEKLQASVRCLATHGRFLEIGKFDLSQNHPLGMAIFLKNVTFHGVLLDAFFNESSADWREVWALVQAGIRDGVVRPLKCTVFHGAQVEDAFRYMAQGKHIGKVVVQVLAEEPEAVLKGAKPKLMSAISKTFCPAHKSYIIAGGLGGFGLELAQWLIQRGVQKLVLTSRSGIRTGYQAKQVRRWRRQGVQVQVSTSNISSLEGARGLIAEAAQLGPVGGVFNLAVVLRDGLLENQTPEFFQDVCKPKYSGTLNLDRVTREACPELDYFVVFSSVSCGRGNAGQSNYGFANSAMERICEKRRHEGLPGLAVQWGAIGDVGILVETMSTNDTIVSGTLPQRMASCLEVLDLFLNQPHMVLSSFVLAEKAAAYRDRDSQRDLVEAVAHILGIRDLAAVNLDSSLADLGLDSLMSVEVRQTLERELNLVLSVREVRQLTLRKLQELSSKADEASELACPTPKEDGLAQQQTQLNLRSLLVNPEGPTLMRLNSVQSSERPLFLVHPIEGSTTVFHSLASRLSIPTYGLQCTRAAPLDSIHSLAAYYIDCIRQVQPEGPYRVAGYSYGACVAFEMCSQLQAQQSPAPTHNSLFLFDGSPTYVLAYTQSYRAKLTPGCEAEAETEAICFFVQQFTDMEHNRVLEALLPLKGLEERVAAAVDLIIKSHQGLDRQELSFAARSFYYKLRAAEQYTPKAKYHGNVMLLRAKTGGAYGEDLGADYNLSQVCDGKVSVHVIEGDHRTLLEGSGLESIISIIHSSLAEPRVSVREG

IC50 [nM]	Compound
1 to 99	CC(C)Oc1c(-c2ccc(OC3CCN(C(=O)[C@H]4CCCO4)CC3)cc2)ccc2cccnc12 [Example 180, {4-[4-(8-Isopropoxyquinolin-7-yl)-phenoxy]-piperidin-1-yl}-(R)-tetrahydrofuran-2-yl-methanone, HCl]
1 to 99	CCOc1c(-c2ccc(OC3CCN(C(=O)[C@H]4CCCO4)CC3)cc2)ccc2cccnc12 [Example 181, {4-[4-(8-Ethoxyquinolin-7-yl)-phenoxy]-piperidin-1-yl}-(R)-tetrahydro-furan-2-yl-methanone, HCl]
100 to 999	O=C([C@H]1CCCO1)N1CCC(Oc2ccc(-c3ccc4cccnc4c3OCCN3CCOCC3)cc2)CC1 [Example 182, (4-{4-[8-(2-Morpholin-4-yl-ethoxy)-quinolin-7-yl]-phenoxy}-piperidin-1-yl)-(R)-tetrahydrofuran-2-yl-methanone, 2HCl]
1000 to 10000	O=C([C@H]1CCCO1)N1CCC(Oc2ccc(-c3ccc4cccnc4c3OCCN3CCCC3)cc2)CC1 [Example 183]
100 to 999	O=C([C@H]1CCCO1)N1CCC(Oc2ccc(-c3ccc4cccnc4c3OCCCN3CCCC3)cc2)CC1 [Example 184, (4-{4-[8-(3-Pyrrolidin-1-yl-propoxy)-quinolin-7-yl]-phenoxy}-piperidin-1-yl)-(R)-tetrahydrofuran-2-yl-methanone, HCl]
100 to 999	CN1CCN(CCOc2c(-c3ccc(OC4CCN(C(=O)[C@H]5CCCO5)CC4)cc3)ccc3cccnc23)CC1 [Example 185, [4-[4-[8-[2-(4-Methylpiperazin-1-yl)ethoxy]-7-quinolyl]phenoxy]-1-piperidyl]-[(2R)-tetrahydrofuran-2-yl]methanone, HCl]
1 to 99	COCCOc1c(-c2ccc(OC3CCN(C(=O)[C@H]4CCCO4)CC3)cc2)ccc2cccnc12 [Example 186, [4-[4-[8-(2-Methoxyethoxy)-7-quinolyl]phenoxy]-1-piperidyl]-[(2R)-tetrahydrofuran-2-yl]methanone, HCl]
1 to 99	COCCCOc1c(-c2ccc(OC3CCN(C(=O)[C@H]4CCCO4)CC3)cc2)ccc2cccnc12 [Example 187, [4-[4-[8-(3-Methoxypropoxy)-7-quinolyl]phenoxy]-1-piperidyl]-[(2R)-tetrahydrofuran-2-yl]methanone, HCl]
100 to 999	CCC(=O)N1CCC(Oc2ccc(-c3ccc4cccnc4c3O)cc2)CC1 [Example 188, 1-{4-[4-(8-Hydroxyquinolin-7-yl)-phenoxy]-piperidin-1-yl}-propan-1-one, HCl]
100 to 999	O=C(C1CC1)N1CCC(Oc2ccc(-c3ccc4cccnc4c3O)cc2)CC1 [Example 189, Cyclopropyl-{4-[4-(8-hydroxyquinolin-7-yl)-phenoxy]-piperidin-1-yl}-methanone, HCl]
1 to 99	O=C([C@H]1CCCO1)N1CCC(Oc2ccc(-c3ccc4cccnc4c3O)cc2)CC1 [Example 190, {4-[4-(8-Hydroxyquinolin-7-yl)-phenoxy]-piperidin-1-yl}-(R)-tetrahydro-furan-2-yl-methanone, HCl]
1000 to 10000	CC(C)C(=O)N1CCC(Oc2ccc(-c3cnc4ccccc4c3)cc2Cl)CC1 [Example 192, 1-[4-(2-Chloro-4-quinolin-3-yl-phenoxy)-piperidin-1-yl]-2-methyl-propan-1-one]
1000 to 10000	O=C(C1CC1)N1CCC(Oc2ccc(-c3cnc4ccccc4c3)cc2Cl)CC1 [Example 193, [4-(2-Chloro-4-quinolin-3-yl-phenoxy)-piperidin-1-yl]-cyclopropyl-methanone]
1000 to 10000	CCC(=O)N1CCC(Oc2ccc(-c3ccc4cccnc4c3)cc2Cl)CC1 [Example 194, 1-[4-(2-Chloro-4-quinolin-7-yl-phenoxy)-piperidin-1-yl]-propan-1-one]
1000 to 10000	CC(C)C(=O)N1CCC(Oc2ccc(-c3ccc4cccnc4c3)cc2Cl)CC1 [Example 195, 1-[4-(2-Chloro-4-quinolin-7-yl-phenoxy)-piperidin-1-yl]-2-methyl-propan-1-one]
1000 to 10000	CCC(=O)N1CCC(Oc2ccc(-c3cnc4ccccc4c3)cc2OC)CC1 [Example 196, 1-[4-(2-Methoxy-4-quinolin-3-yl-phenoxy)-piperidin-1-yl]-propan-1-one]
1000 to 10000	COc1cc(-c2cnc3ccccc3c2)ccc1OC1CCN(C(=O)C(C)C)CC1 [Example 197, 1-[4-(2-Methoxy-4-quinolin-3-yl-phenoxy)-piperidin-1-yl]-2-methyl-propan-1-one]
1000 to 10000	COc1cc(-c2cnc3ccccc3c2)ccc1OC1CCN(C(=O)C2CC2)CC1 [Example 198, Cyclopropyl-[4-(2-methoxy-4-quinolin-3-yl-phenoxy)-piperidin-1-yl]-methanone]
1000 to 10000	CCC(=O)N1CCC(Oc2ccc(-c3ccc4cccnc4c3)cc2OC)CC1 [Example 199, 1-[4-(2-Methoxy-4-quinolin-7-yl-phenoxy)-piperidin-1-yl]-propan-1-one]
1 to 99	CCC(=O)N1CCC(Oc2ccc(-c3cnc4ccccc4c3)c(F)c2)CC1 [Example 200, 1-[4-(3-Fluoro-4-quinolin-3-yl-phenoxy)-piperidin-1-yl]-propan-1-one]

IC50 [nM]	Compound
1 to 99	O=C(C1CC1)N1CCC(Oc2ccc(-c3cnc4ccccc4c3)c(F)c2)CC1 [Example 202, Cyclopropyl-[4-(3-fluoro-4-quinolin-3-yl-phenoxy)-piperidin-1-yl]-methanone]
1 to 99	CCC(=O)N1CCC(Oc2ccc(-c3cnc4ccccc4c3)c(Cl)c2)CC1 [Example 203, 1-[4-(3-Chloro-4-quinolin-3-yl-phenoxy)-piperidin-1-yl]-propan-1-one]
100 to 999	CC(C)C(=O)N1CCC(Oc2ccc(-c3cnc4ccccc4c3)c(Cl)c2)CC1 [Example 204, 1-[4-(3-Chloro-4-quinolin-3-yl-phenoxy)-piperidin-1-yl]-2-methyl-propan-1-one]
1 to 99	O=C(C1CC1)N1CCC(Oc2ccc(-c3cnc4ccccc4c3)c(Cl)c2)CC1 [Example 205, [4-(3-Chloro-4-quinolin-3-yl-phenoxy)-piperidin-1-yl]-cyclopropyl-methanone]
1000 to 10000	Cc1cc(OC2CCN(C(=O)C(C)C)CC2)ccc1-c1cnc2ccccc2c1 [Example 206, 2-Methyl-1-[4-(3-methyl-4-quinolin-3-yl-phenoxy)-piperidin-1-yl]-propan-1-one]
100 to 999	CCC(=O)N1CCC(Oc2ccc(-c3cnc4ccccc4c3)c(C)c2)CC1 [Example 207, 1-[4-(3-Methyl-4-quinolin-3-yl-phenoxy)-piperidin-1-yl]-propan-1-one]
1000 to 10000	COC(=O)N1CCC(Oc2ccc(-c3cnc4ccccc4c3)c(C)c2)CC1 [Example 208, 4-(3-Methyl-4-quinolin-3-yl-phenoxy)-piperidine-1-carboxylic acid methyl ester]
1000 to 10000	CCC(=O)N1CCC(Oc2ccc(-c3cnc4ccccc4c3)c(OC)c2)CC1 [Example 209, 1-[4-(3-Methoxy-4-quinolin-3-yl-phenoxy)-piperidin-1-yl]-propan-1-one]
1000 to 10000	COc1cc(OC2CCN(C(=O)C(C)C)CC2)ccc1-c1cnc2ccccc2c1 [Example 210, 1-[4-(3-Methoxy-4-quinolin-3-yl-phenoxy)-piperidin-1-yl]-2-methyl-propan-1-one]
1000 to 10000	COc1cc(OC2CCN(C(=O)C3CC3)CC2)ccc1-c1cnc2ccccc2c1 [Example 211, Cyclopropyl-[4-(3-methoxy-4-quinolin-3-yl-phenoxy)-piperidin-1-yl]-methanone]
1000 to 10000	CCC(=O)N1CCC(Oc2ccc(-c3cnc4ccccc4c3)cc2C)CC1 [Example 212, 1-[4-(2-Methyl-4-quinolin-3-yl-phenoxy)-piperidin-1-yl]-propan-1-one]
1000 to 10000	Cc1cc(-c2cnc3ccccc3c2)ccc1OC1CCN(C(=O)C(C)C)CC1 [Example 213, 2-Methyl-1-[4-(2-methyl-4-quinolin-3-yl-phenoxy)-piperidin-1-yl]-propan-1-one]
1000 to 10000	Cc1cc(-c2cnc3ccccc3c2)ccc1OC1CCN(C(=O)C2CC2)CC1 [Example 214, Cyclopropyl-[4-(2-methyl-4-quinolin-3-yl-phenoxy)-piperidin-1-yl]-methanone]
100 to 999	CCC(=O)N1CCC(Oc2cc(F)c(-c3cnc4ccccc4c3)cc2F)CC1 [Example 215, 1-[4-(2,5-Difluoro-4-quinolin-3-yl-phenoxy)-piperidin-1-yl]-propan-1-one]
1000 to 10000	CC(C)C(=O)N1CCC(Oc2cc(F)c(-c3cnc4ccccc4c3)cc2F)CC1 [Example 216, 1-[4-(2,5-Difluoro-4-quinolin-3-yl-phenoxy)-piperidin-1-yl]-2-methyl-propan-1-one]
100 to 999	O=C(C1CC1)N1CCC(Oc2cc(F)c(-c3cnc4ccccc4c3)cc2F)CC1 [Example 217, Cyclopropyl-[4-(2,5-difluoro-4-quinolin-3-yl-phenoxy)-piperidin-1-yl]-methanone]
1000 to 10000	N#CCC(=O)N1CCC(Oc2ccc(-c3cnc4ccccc4c3)cc2)CC1 [Example 218, 3-Oxo-3-[4-(4-quinolin-3-yl-phenoxy)-piperidin-1-yl]-propionitrile]
1 to 99	CCC(=O)N1CCC(Oc2ccc(-c3ccc4cccnc4c3OC)cc2F)CC1 [Example 219, 1-{4-[2-Fluoro-4-(8-methoxy-quinolin-7-yl)-phenoxy]-piperidin-1-yl}-propan-1-one]
1 to 99	COc1c(-c2ccc(OC3CCN(C(=O)C4CC4)CC3)c(F)c2)ccc2cccnc12 [Example 220, Cyclopropyl-{4-[2-fluoro-4-(8-methoxyquinolin-7-yl)-phenoxy]-piperidin-1-yl}-methanone]
1 to 99	COc1c(-c2ccc(OC3CCN(C(=O)[C@H]4CCCO4)CC3)c(F)c2)ccc2cccnc12 [Example 221, {4-[2-Fluoro-4-(8-methoxyquinolin-7-yl)-phenoxy]-piperidin-1-yl}-(R)-tetrahydrofuran-2-yl-methanone]
